Where two headings read alike, the source gives them in different places.
Biological target: human TRPA1 (Homo sapiens, UniProt O75762)
Assay: FLIPR Ca2+ assay, reduction of hydrogen peroxide activation of TRPA1
Type: cell-based
Set-up: expressed in transfected cells
Conditions: for inhibition at 400 µM / inhibition at 100 µM: read-out: % Reduction of Hydrogen Peroxide TRPA1 Activation
Experimental: After centrifugation, a pellet of cells was formed in the bottom of the tube separating them from the supernatant solution.
The pelleted cells were re-suspended in 10 ml assay buffer and 90 μl aliquots (˜50,000 cells) per well delivered to a 96-well assay plate containing 10 μl of test compounds ([…]) or buffer control and incubated at room temperature for 30 minutes.

[1] = 100 μM antagonist vs 500 μM hydrogen peroxide
[2] = 400 μM antagonist vs 500 μM hydrogen peroxide
[3] = antagonist 400 μM against 200 μM hydrogen peroxide
[4] = compound 100 μM against 200 μM hydrogen peroxide, Sets 1-4

Chain of human TRPA1 (O75762 whole entry): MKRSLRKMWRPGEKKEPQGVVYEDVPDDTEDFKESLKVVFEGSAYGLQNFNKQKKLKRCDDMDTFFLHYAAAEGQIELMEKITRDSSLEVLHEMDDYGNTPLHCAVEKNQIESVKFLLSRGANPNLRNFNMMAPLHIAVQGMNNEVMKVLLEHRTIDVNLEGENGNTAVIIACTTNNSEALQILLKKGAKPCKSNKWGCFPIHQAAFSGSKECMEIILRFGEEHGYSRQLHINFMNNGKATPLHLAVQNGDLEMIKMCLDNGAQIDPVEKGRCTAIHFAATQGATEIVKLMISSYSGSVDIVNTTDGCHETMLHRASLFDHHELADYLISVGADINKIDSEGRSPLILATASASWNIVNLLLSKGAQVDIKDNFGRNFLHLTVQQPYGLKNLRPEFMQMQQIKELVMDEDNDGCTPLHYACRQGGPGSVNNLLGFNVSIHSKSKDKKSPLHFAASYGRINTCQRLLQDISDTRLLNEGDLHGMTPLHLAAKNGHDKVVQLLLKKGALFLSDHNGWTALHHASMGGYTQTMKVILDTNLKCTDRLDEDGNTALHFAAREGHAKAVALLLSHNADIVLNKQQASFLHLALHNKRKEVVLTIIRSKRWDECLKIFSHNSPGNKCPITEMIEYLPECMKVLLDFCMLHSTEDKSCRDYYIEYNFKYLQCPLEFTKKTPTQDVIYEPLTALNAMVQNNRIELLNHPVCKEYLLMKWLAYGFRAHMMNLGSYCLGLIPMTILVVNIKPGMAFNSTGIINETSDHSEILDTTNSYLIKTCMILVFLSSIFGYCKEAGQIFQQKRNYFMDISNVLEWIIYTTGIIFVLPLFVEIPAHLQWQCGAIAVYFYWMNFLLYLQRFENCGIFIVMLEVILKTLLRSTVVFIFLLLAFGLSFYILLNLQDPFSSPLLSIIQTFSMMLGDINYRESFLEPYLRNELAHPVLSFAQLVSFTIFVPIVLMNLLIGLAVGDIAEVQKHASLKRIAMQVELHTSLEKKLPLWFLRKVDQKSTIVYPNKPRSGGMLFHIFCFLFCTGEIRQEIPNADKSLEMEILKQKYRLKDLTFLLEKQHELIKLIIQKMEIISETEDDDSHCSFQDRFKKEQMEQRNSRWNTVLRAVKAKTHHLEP

SMILES	Block of hydrogen peroxide activation of TRPA1 [1]	Average Ca++ Counts [4] [Counts]	inhibition at 100 µM [4] [%]	further results
CC(=O)OCC(C)(C)Cc1ccccc1	BLOCK ONLY H2O2/TRPA1			
C[C@H]1CC[C@]2(O1)C(C)(C)CCC[C@]2(C)O				Block of hydrogen peroxide activation of TRPA1 [2]: BLOCK ONLY H2O2/TRPA1
CCCC1CC(=O)C=C(C)C1 (stereo not shown)				Block of hydrogen peroxide activation of TRPA1 [2]: BLOCK ONLY H2O2/TRPA1
CC(C)C=C(C=O)c1ccccc1 (mixture of isomers) [4-Methyl-2-phenyl-2 Pentenal]				inhibition at 400 µM [3]: 54%
CC1=CC(=O)[C@@H]2C[C@H]1C2(C)C (racemic) [dl-verbenone]				% Reduction of Hydrogen Peroxide TRPA1 Activation: 54.1%; Average Ca++ Counts: 3231.0 Counts; Block of hydrogen peroxide activation of TRPA1: BLOCK ONLY H2O2/TRPA1
CCCCCCO [1-hexanol]	BLOCK ONLY H2O2/TRPA1	5664.5	46.5	
C=CC(CCCCC)OC(C)=O (stereo not shown) [1-octen-3-yl acetate]	BLOCK ONLY H2O2/TRPA1	3228.5	54.2	
CCCCCCCCCCCO [1-undecanol]	BLOCK ONLY H2O2/TRPA1	3396.0	51.8	
CSCSCSC [2,4,6-trithiaheptane]	BLOCK ONLY H2O2/TRPA1	4610.5	56.5	
Cc1ccc(C)c(O)c1 [2,5-dimethylphenol]	BLOCK ONLY H2O2/TRPA1	5208.0	50.8	
c1ccc(CCCC2CCCO2)cc1 (stereo not shown) [2-(3-Phenylpropyl) tetrahydrofuran]				Block of hydrogen peroxide activation of TRPA1 [2]: BLOCK ONLY H2O2/TRPA1; inhibition at 400 µM [3]: 74%
CCCCCCC1OCC(C)O1 (stereo not shown) [2-Hexyl-4-methyl-1,3-dioxolane]	BLOCK ONLY H2O2/TRPA1			
CCCc1ccc(O)c(OC)c1 [2-Methoxy-4-propyl-phenol]				Block of hydrogen peroxide activation of TRPA1: BLOCK ONLY H2O2/TRPA1; inhibition at 400 µM: 43%
CCC(C)COC(=O)C(C)CC (stereo not shown) [2-Methyl butyl 2-methylbutyrate]	BLOCK ONLY H2O2/TRPA1			
CC(=O)c1ccc(C)o1 [2-acetyl-5-methylfuran]	BLOCK ONLY H2O2/TRPA1	2937.0	58.3	
CCCCC(CC)CO (stereo not shown) [2-ethyl-1-hexanol]	BLOCK ONLY H2O2/TRPA1	4960.5	53.2	
CCCCCCC1OCC(C)O1 (stereo not shown) [2-hexyl-4-methyl-1,3-dioxolan]		3376.0	52.1	
CC1=C(O)C(=O)CC1.O [2-hydroxy-3-methyl-2-cyclopenten-1-one hydrate]				Average Ca++ Counts: 4172.0 Counts; inhibition at 100 µM: 60.6%
CCC(C)CS (stereo not shown) [2-methyl-1-butanethiol]	BLOCK ONLY H2O2/TRPA1	3208.0	54.5	

SMILES	Block of hydrogen peroxide activation of TRPA1 [1]	Average Ca++ Counts [4] [Counts]	inhibition at 100 µM [4] [%]	further results
CCC=C(C)C(=O)O [2-methyl-2-pentenoic acid]	BLOCK ONLY H2O2/TRPA1	5040.0	52.4	
CCOc1nccnc1C [2-methyl-3-ethoxypyrazine]	BLOCK ONLY H2O2/TRPA1	3197.0	54.6	
CCCCC(=O)C(C)C [2-methyl-3-heptanone]	BLOCK ONLY H2O2/TRPA1	4994.0	52.9	
CCC(C)COC(=O)C(C)CC (stereo not shown) [2-methylbutyl 2-methylbutyrate]		2685.5	61.9	
CCCCCCCC(C)O (stereo not shown) [2-nonanol]	BLOCK ONLY H2O2/TRPA1	3064.5	56.5	
CC=C(C=O)c1ccccc1 [2-phenyl-2-butenal]	BLOCK ONLY H2O2/TRPA1	3809.0	56.3	
CCC(=O)c1nccs1 [2-propionylthiazole]	BLOCK ONLY H2O2/TRPA1	4875.0	54	
CCCCCCCCCC(C)O (stereo not shown) [2-undecanol]	BLOCK ONLY H2O2/TRPA1	3049.0	56.7	
CC1CC(O)CC(C)(C)C1 (stereo not shown) [3,3,5-Trimethylcyclohexanol]				Block of hydrogen peroxide activation of TRPA1 [2]: BLOCK ONLY H2O2/TRPA1; inhibition at 400 µM [3]: 72%
CC(C)CCCC(C)CCO (stereo not shown) [3,7-Dimethyl-1-octanol]	BLOCK ONLY H2O2/TRPA1			
CC(C)CCCC(C)CCO (stereo not shown) [3,7-dimethyl-1-octanol, 95%, 3,7-dimethyl-1-octanol]		5168.0	51.2	
CCCCCCCC1CC(C)OC1=O (stereo not shown) [3-Heptyldihydro-5-methyl-2(3H)-furanone]				Block of hydrogen peroxide activation of TRPA1 [2]: BLOCK ONLY H2O2/TRPA1; inhibition at 400 µM [3]: 59%
CC(=O)c1cccnc1 [3-acetylpyridine, 98%, 3-acetylpyridine]	BLOCK ONLY H2O2/TRPA1	2981.0	57.7	
CCCC(CCOC(C)=O)SC(C)=O (stereo not shown) [3-acetylsulfanylhexyl acetate]				Block of hydrogen peroxide activation of TRPA1 [2]: BLOCK ONLY H2O2/TRPA1; inhibition at 400 µM [3]: 58%
CCCC(=O)CC [3-hexanone]	BLOCK ONLY H2O2/TRPA1	3381.5	52	
O=C(O)c1cccc(O)c1 [3-hydroxybenzoic acid]	BLOCK ONLY H2O2/TRPA1	3284.5	53.4	
CCC(S)C(C)=O (stereo not shown) [3-mercapto-2-pentanone]	BLOCK ONLY H2O2/TRPA1	1255.5	82.2	
CC1CCC(=O)C1=O (stereo not shown) [3-methyl-1,2-cyclopentanedione]	BLOCK ONLY H2O2/TRPA1	3246.5	53.9	
CC(=O)CCc1ccc2c(c1)OCO2 [4-benzo[1,3]dioxol-5-yl-butan-2-one]				Average Ca++ Counts: 5431.5 Counts; Block of hydrogen peroxide activation of TRPA1: BLOCK ONLY H2O2/TRPA1; inhibition at 100 µM: 48.7%

SMILES	Block of hydrogen peroxide activation of TRPA1 [1]	Average Ca++ Counts [4] [Counts]	inhibition at 100 µM [4] [%]	further results
O=Cc1ccc(O)cc1 [4-hydroxybenzaldehyde]		3424.5	51.4	
CSCCC(C)=O [4-methylthio-2-butanone]		3322.5	43.5	
CC(=O)c1ccc(C)cc1 [4′-methylacetophenone]	BLOCK ONLY H2O2/TRPA1	3244.5	53.9	
CC(C)CCCC(=O)O [5-methylhexanoic acid]	BLOCK ONLY H2O2/TRPA1	4747.0	55.2	
CCCCCC(=O)CCCCC [6-undecanone]	BLOCK ONLY H2O2/TRPA1	3357.5	52.3	
C=C(C)c1ccc(C)cc1 [Alpha-p-dimethylstyrene]	BLOCK ONLY H2O2/TRPA1			
CCCCC(=O)OC1CC2CCC1(C)C2(C)C (stereo not shown) [Bornyl Valerate]				Block of hydrogen peroxide activation of TRPA1 [2]: BLOCK ONLY H2O2/TRPA1; inhibition at 400 µM [3]: 52%
CCCC1CC(=O)C=C(C)C1 (stereo not shown) [Celery Ketone, 2-Cyclohexen-1-one, 3-methyl-5-propyl-]				inhibition at 400 µM [3]: 56%
CC(=O)OCCC(C)CCC=C(C)C (stereo not shown) [Citronellyl acetate]				Block of hydrogen peroxide activation of TRPA1 [2]: BLOCK ONLY H2O2/TRPA1; inhibition at 400 µM [3]: 70%
C[C@H]1CC[C@]2(O1)C(C)(C)CCC[C@]2(C)O [Hydroxydihydrotheaspirane, 1-Oxaspiro[4.5]decan-6-ol, 2,6,10,10-tetramethyl-, (2S,5S,6S)-6-]				% Reduction of Hydrogen Peroxide TRPA1 Activation [3]: 57%
COC(=O)c1ccccc1OC [Methyl 2-methoxy-benzoate]				Block of hydrogen peroxide activation of TRPA1 [2]: BLOCK ONLY H2O2/TRPA1; inhibition at 400 µM [3]: 48%
COC(=O)CCCc1ccccc1 [Methyl-4-phenyl butyrate]				Block of hydrogen peroxide activation of TRPA1 [2]: BLOCK ONLY H2O2/TRPA1; % Reduction of Hydrogen Peroxide TRPA1 Activation [3]: 60%
CC(O)C(=O)NCCO (stereo not shown) [N-(2-Hydroxyethyl) lactamide]				Block of hydrogen peroxide activation of TRPA1 [2]: BLOCK ONLY H2O2/TRPA1; inhibition at 400 µM [3]: 65%
CCCCCCC1CCCC(=O)O1 (stereo not shown) [Undecanoic-δ-Lactone]				% Reduction of Hydrogen Peroxide TRPA1 Activation: −42%
COc1cc(C(=O)O)ccc1O [Vanillic Acid]	BLOCK ONLY H2O2/TRPA1			inhibition at 100 µM (antagonist 100 μM against 200 μM hydrogen peroxide): 19%
CC1=CC(O)CC(C)C2CC(=C(C)C)CC12 (stereo not shown) [Vetiverol, 6-Azulenol, 1,2,3,3a,4,5,6,8a-octahydro-4,8-dimethyl-2-(1-methylethylidene)-]				inhibition at 400 µM [3]: -34%
C=C(C)OC(C)=O [acetic acid isopropenyl ester]	BLOCK ONLY H2O2/TRPA1	2860.5	59.4	
CC(=O)C(C)O (stereo not shown) [acetoin]	BLOCK ONLY H2O2/TRPA1	4341.5	59	
